Laboratory results: PubChem BioAssay AID248 (DTP/NCI, 2004)
“And” between values parts separate entries of the source, which are not always exact repeats. Equal entries are not always repeated. Inconclusive results and toxic doses are left out. Rule as the data show it: active = T/C of 150% or more; inactive = T/C below 125%.

System: L1210 leukemia ip in BDF1 mice, survival T/C
Assay: NCI In Vivo Anticancer Drug Screen. Data for tumor model L1210 Leukemia (intraperitoneal) in B6D2F1 (BDF1) mice
Details: endpoint: mean survival time, higher = longer survival
How it was run: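 Value reflects the ratio of survival in compound-treated mice to survival in vehicle-treated controls, with both groups carrying the same transplanted tumor.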

[1] = dose: 100.0 mg/kg/injection, schedule: Q01DX009 (ip), vehicle: Klucel (hydroxypropylcellulose) (HPC)
[2] = dose: 200.0 mg/kg/injection, schedule: Q01DX009 (ip), vehicle: Klucel (hydroxypropylcellulose) (HPC)
[3] = dose: 100.0 mg/kg/injection, schedule: Q01DX001 (ip), vehicle: carboxymethylcellulose (CMC)
[4] = dose: 200.0 mg/kg/injection, schedule: Q01DX001 (ip), vehicle: carboxymethylcellulose (CMC)
[5] = dose: 400.0 mg/kg/injection, schedule: Q01DX001 (ip), vehicle: carboxymethylcellulose (CMC)
[6] = dose: 100.0 mg/kg/injection, schedule: Q04DX003 (ip), vehicle: saline
[7] = dose: 200.0 mg/kg/injection, schedule: Q04DX003 (ip), vehicle: saline
[8] = dose: 400.0 mg/kg/injection, schedule: Q04DX003 (ip), vehicle: saline
[9] = dose: 100.0 mg/kg/injection, schedule: Q04DX003 (ip), vehicle: Klucel (hydroxypropylcellulose) (HPC)
[10] = dose: 200.0 mg/kg/injection, schedule: Q04DX003 (ip), vehicle: Klucel (hydroxypropylcellulose) (HPC)
[11] = dose: 400.0 mg/kg/injection, schedule: Q04DX003 (ip), vehicle: Klucel (hydroxypropylcellulose) (HPC)
[12] = dose: 50.0 mg/kg/injection, schedule: Q04DX003 (ip), vehicle: saline
[13] = dose: 25.0 mg/kg/injection, schedule: Q01DX009 (ip), vehicle: saline with Tween-80
[14] = dose: 50.0 mg/kg/injection, schedule: Q01DX001 (ip), vehicle: saline
[15] = dose: 100.0 mg/kg/injection, schedule: Q01DX001 (ip), vehicle: saline
[16] = dose: 100.0 mg/kg/injection, schedule: Q01DX009 (ip), vehicle: saline
[17] = dose: 200.0 mg/kg/injection, schedule: Q01DX001 (ip), vehicle: saline
[18] = dose: 200.0 mg/kg/injection, schedule: Q01DX009 (ip), vehicle: saline
[19] = dose: 100.0 mg/kg/injection, schedule: Q04DX003 (ip), vehicle: saline with Tween-80

Measured: T/C

CCN(CC)c1ccc(/C=N\N(C)C)cc1
inactive: dose: 50.0 mg/kg/injection, schedule: Q01DX009 (ip), vehicle: Klucel (hydroxypropylcellulose) (HPC) 97 % of control | [1] 101 % of control | [2] 106 % of control

C=C(C)CCCC(C)CC#N (centres undefined)
inactive: [3] 117 % of control | [4] 100 % of control | [5] 96 % of control

CC(C)=NNc1ccc([N+](=O)[O-])cc1[N+](=O)[O-]
inactive: dose: 50.0 mg/kg/injection, schedule: Q04DX002 (ip), vehicle: Klucel (hydroxypropylcellulose) (HPC) 100 % of control | dose: 100.0 mg/kg/injection, schedule: Q04DX002 (ip), vehicle: Klucel (hydroxypropylcellulose) (HPC) 94 % of control and 107 % of control | dose: 200.0 mg/kg/injection, schedule: Q04DX002 (ip), vehicle: Klucel (hydroxypropylcellulose) (HPC) 102 % of control | dose: 400.0 mg/kg/injection, schedule: Q04DX002 (ip), vehicle: Klucel (hydroxypropylcellulose) (HPC) 100 % of control and 105 % of control

Cc1ccc(S(=O)(=O)N2CCC=Cc3ccccc32)cc1
inactive: [3] 110 % of control | [4] 102 % of control | [5] 107 % of control

CC(=O)Nc1ccc2c(c1)/C(=N/O)c1ccccc1-2
inactive: [6] 97 % of control | [7] 89 % of control | [8] 94 % of control

C=CCc1c(C)nc(N)[nH]c1=O
inactive: [9] 104 % of control | [10] 107 % of control | [11] 102 % of control

Cn1ncc2c(N)nc(-c3ccccc3)nc21
inactive: dose: 100.0 mg/kg/injection, schedule: Q04DX003 (ip), vehicle: other 97 % of control

COc1ccc(N=Cc2cc(Br)cc(Br)c2O)cc1.COc1ccc(N=Cc2cc(Br)cc(Br)c2O)cc1.[Co]
inactive: [12] 92 % of control | [6] 92 % of control | [7] 95 % of control

NNC(=O)c1ccc(Cl)c(Cl)c1
inactive: dose: 100.0 mg/kg/injection, schedule: Q01DX001 (ip), vehicle: Klucel (hydroxypropylcellulose) (HPC) 104 % of control | dose: 200.0 mg/kg/injection, schedule: Q01DX001 (ip), vehicle: Klucel (hydroxypropylcellulose) (HPC) 117 % of control | dose: 400.0 mg/kg/injection, schedule: Q01DX001 (ip), vehicle: Klucel (hydroxypropylcellulose) (HPC) 112 % of control

C/C(=N\N)c1ccc(Cl)cc1
inactive: dose: 6.25 mg/kg/injection, schedule: Q01DX009 (ip), vehicle: saline with Tween-80 93 % of control | dose: 12.5 mg/kg/injection, schedule: Q01DX009 (ip), vehicle: saline with Tween-80 101 % of control | [13] 96 % of control

C[n+]1ccc(C=O)cc1
inactive: [14] 102 % of control | dose: 50.0 mg/kg/injection, schedule: Q01DX009 (ip), vehicle: saline 104 % of control and 109 % of control | [12] 103 % of control | [15] 105 % of control | [16] 102 % of control and 117 % of control | dose: 100.0 mg/kg/injection, schedule: Q04DX002 (ip), vehicle: saline 94 % of control and 107 % of control | [6] 101 % of control | [17] 105 % of control | [18] 106 % of control and 120 % of control | dose: 200.0 mg/kg/injection, schedule: Q04DX002 (ip), vehicle: saline 102 % of control and 104 % of control | [7] 94 % of control | dose: 400.0 mg/kg/injection, schedule: Q04DX002 (ip), vehicle: saline 98 % of control and 100 % of control

O=C(c1ccccn1)c1nnn2ccccc12
inactive: dose: 100.0 mg/kg/injection, schedule: Q04DX002 (ip), vehicle: saline with Tween-80 91 % of control | dose: 200.0 mg/kg/injection, schedule: Q04DX002 (ip), vehicle: saline with Tween-80 87 % of control

C[Si](C)(C)C1C2c3ccccc3C1C1(C#N)C(=O)C(Cl)=C(Cl)C(=O)C21C#N (centres undefined)
inactive: [19] 93 % of control

CNC(=O)NNC(=O)c1ccc(Cl)cc1
inactive: [13] 91 % of control | dose: 50.0 mg/kg/injection, schedule: Q01DX009 (ip), vehicle: saline with Tween-80 94 % of control

COc1cc(OC)c([N+](=O)[O-])cc1Cl
inactive: [1] 96 % of control | [9] 96 % of control | [2] 96 % of control | [10] 93 % of control | dose: 400.0 mg/kg/injection, schedule: Q01DX009 (ip), vehicle: Klucel (hydroxypropylcellulose) (HPC) 92 % of control | [11] 94 % of control

O=C(O)CCSc1nc2ccccc2s1
inactive: dose: 75.0 mg/kg/injection, schedule: Q01DX009 (ip), vehicle: Klucel (hydroxypropylcellulose) (HPC) 101 % of control | dose: 150.0 mg/kg/injection, schedule: Q01DX009 (ip), vehicle: Klucel (hydroxypropylcellulose) (HPC) 88 % of control | dose: 300.0 mg/kg/injection, schedule: Q01DX009 (ip), vehicle: Klucel (hydroxypropylcellulose) (HPC) 95 % of control | [11] 94 % of control

OCCNCc1cccc(-c2ccccc2)c1O
inactive: dose: 100.0 mg/kg/injection, schedule: Q01DX009 (ip), vehicle: saline with Tween-80 93 % of control | dose: 200.0 mg/kg/injection, schedule: Q01DX009 (ip), vehicle: saline with Tween-80 87 % of control | dose: 400.0 mg/kg/injection, schedule: Q01DX009 (ip), vehicle: saline with Tween-80 101 % of control

CCCCCC(C)(O)CCC (centres undefined)
inactive: [14] 93 % of control | [15] 93 % of control | [17] 93 % of control

CCCCCCCCCCCCCCCC(=O)CCCCCCCCCCCCCCC
inactive: dose: 100.0 mg/kg/injection, schedule: Q01DX001 (ip), vehicle: other 94 % of control | dose: 200.0 mg/kg/injection, schedule: Q01DX001 (ip), vehicle: other 100 % of control | dose: 400.0 mg/kg/injection, schedule: Q01DX001 (ip), vehicle: other 97 % of control

CN1CN(c2ccccc2)C2(CCN(Cc3nc4ccccc4[nH]3)CC2)C1=O
inactive: dose: 75.0 mg/kg/injection, schedule: Q04DX003 (ip), vehicle: Klucel (hydroxypropylcellulose) (HPC) 100 % of control | dose: 150.0 mg/kg/injection, schedule: Q04DX003 (ip), vehicle: Klucel (hydroxypropylcellulose) (HPC) 107 % of control | dose: 300.0 mg/kg/injection, schedule: Q04DX003 (ip), vehicle: Klucel (hydroxypropylcellulose) (HPC) 105 % of control

O=C(C[n+]1ccccc1)CC(O)(C(F)(F)F)C(F)(F)F
inactive: [19] 104 % of control | dose: 200.0 mg/kg/injection, schedule: Q04DX003 (ip), vehicle: saline with Tween-80 103 % of control | dose: 400.0 mg/kg/injection, schedule: Q04DX003 (ip), vehicle: saline with Tween-80 98 % of control

C1CC2CCC[N]3C2C(C1)[O][Pb]31[O]C2CCCC3CCC[N]1C32 (centres undefined)
inactive: dose: 30.0 mg/kg/injection, schedule: Q01DX015 (ip), vehicle: carboxymethylcellulose (CMC) 91 % of control | dose: 60.0 mg/kg/injection, schedule: Q01DX015 (ip), vehicle: carboxymethylcellulose (CMC) 90 % of control | [1] 97 % of control | [9] 95 % of control | [2] 92 % of control | [10] 94 % of control | [11] 98 % of control

O=C1Nc2ccccc2Oc2ccccc21
inactive: [16] 105 % of control | [6] 92 % of control | [18] 93 % of control | [7] 91 % of control | dose: 400.0 mg/kg/injection, schedule: Q01DX009 (ip), vehicle: saline 98 % of control | [8] 92 % of control
